Measured values as given in paper PMC3592886, “Utilization of Quantitative In Vivo Pharmacology Approaches to Assess Combination Effects of Everolimus and Irinotecan in Mouse Xenograft Models of Colorectal Cancer” (PLoS ONE, 2013).
Read-outs that look alike come from different tables or passages of the source. Marks after values point to notes of the source that are not given here.

Tests used:
HT29 cells = test: Sulforhodamine B (SRB) anti-proliferation assay, HT29; type: cell-based
Method: (§1) Cytoxic effects were determined using the sulforhodamine B (SRB) assay. Briefly, 5000 viable cells were plated into 96-well plates and incubated overnight prior to exposure with different concentrations of drugs. Cells were exposed to increasing concentrations of everolimus (0–200 nM), SN38 (0–8 nM), and combinations of the two. Following a 72 hour incubation, media was removed and cells were fixed with cold 10% trichloroacetic acid for 30 minutes at 4° C. Cells were washed with water and stained with 0.4% SRB for 30 minutes at room temperature. Cells were washed again with 1% acetic acid and stain was solubilized with 10 mM tris at room temperature and read at an OD of 565 nm. […] The resulting Combination Index (CI) was used as a quantitative measure of the degree of interaction between different drugs. A CI value equal to 1 denotes additivity; CI greater than 1, antagonism; CI less than 1, synergism.

HCT8 cells = test: Sulforhodamine B (SRB) anti-proliferation assay, HCT8; type: cell-based; conditions: RAD (20 nM), SN38 (4 nM) or the combination of the two, Figure 2
Method: as §1

[1] = Pharmacokinetic study of everolimus in mice bearing HT29 tumors (plasma and tumor, LC/MS/MS); type: in vivo; conditions: for Cmax / Tmax / AUC(0-t) / CL/F / Vd/F / half-life: nude; for CL/F: read-out: CLss/F (converted); for Vd/F: read-out: Vz/F; for half-life: read-out: t½ (converted)
Method: A pharmacokinetic study of everolimus was conducted in mice bearing HT29 tumors (average volume ∼300 mm^3). Mice were treated with either 2.5 or 10 mg/kg everolimus daily for 7 days by oral gavage. Three mice per dose level were sacrificed by cardiac stick exsanguination at 30 minutes, 2, 4, 6 and 24 hours following drug administration on day 7. Plasma and tumor tissue were snap-frozen in liquid N2 and stored at −70°C until analyzed.
Everolimus was measured in plasma and tumors by LC/MS/MS assay. Analytical standards, quality control (QC) and unknowns were all prepared by adding 200 µl of unknown or spiked blank plasma or tumor homogenate (100 mg/ml in water) samples to a 1.5 ml microcentrifuge tube. Samples were extracted by the addition of 1 ml methyl tert-butyl ether (MTBE) followed by 10 min vortex mixing. Samples were centrifuged at 13,000 RPM for 10 min and the supernatant collected and 900 µl transferred to a clean glass test tube. Samples were evaporated to dryness using a rotary evaporator followed by re-suspension in 100 µl of 50% acetonitrile/50% 10 mM ammonium acetate and transferred to auto-sampler vials for analysis. Mass spectra for extracted samples was obtained on a MDS Sciex 3200 Q-TRAP triple quadrupole mass spectrometer (Applied Biosystems, Inc., Foster City, CA) with a turbo ionspray source interfaced to an Agilent 1200 Series Binary Pump SL HPLC system (Santa Clara, CA).The lower and upper limits of quantitation for the assay were 1 and 5000 nM, respectively. Accuracy and precision (% RSD) based on analysis of standards and QC samples for this assay were 90.7% and 5.5% for plasma and 93.0% and 4.2% for tumor. Additional details may be found in Supplement S1 (section SA.1.).
Plasma and tumor pharmacokinetic parameters were calculated by noncompartmental analysis with WinNonlin. Everolimus plasma data was fit to a two-compartment model with first-order absorption and simulations of plasma concentrations at a 5 mg/kg dose of everolimus were performed by SAAM II version 2.1 (The Epsilon Group, Charlottesville, VA/University of Washington).

[2] = Human pharmacokinetics of everolimus from the literature; type: in vivo; conditions: humans at the clinically used doses of 5 to 10 mg per day; 75% plasma protein binding used; from data of ref 25, 26
Text: For in vivo studies, we established doses of everolimus and irinotecan to administer to mice that would yield exposures at or below clinically achievable levels. Human pharmacokinetic information on everolimus, [26] and irinotecan/SN38 [27]–[30] was gathered from the literature and is presented in Tables 1 and 2 respectively.

HCT116 tumors = test: NMR-based metabolomics of HCT116 tumors; type: in vivo, mice; conditions: end of study
Method: When HT29 and HCT116 tumors reached an average volume of ∼325 mm^3 animals were randomized into four treatment groups (n = 9–10 mice per group): (i) vehicles, (ii) 5 mg/kg everolimus (RAD) by oral gavage (PO) daily, (iii) 10 mg/kg irinotecan (IRI) once weekly by intravenous (iv) tail vein injection, and (iv) a combination of RAD and IRI. Everolimus, diluted in sterile water, and irinotecan, diluted in sterile 0.9% saline, were administered at 4 mL/kg. Animals were treated for 28 days. Tumor volumes and body weights were measured 2–3 times weekly. On day 28 of treatment 3–6 animals per group were sacrificed, approximately 24 hours following everolimus treatment, and tumors harvested for metabolomic analysis.
For metabolomic analysis, animals were fasted for 4 hours then received 250 mg/kg of [1-^13C] glucose (Cambridge Isotopes, Cambridge, MA) by IV injection 60 minutes prior to tumor harvesting. Snap-frozen tumor specimens underwent two-phase acid extraction procedure (using 8% perchloric acid) previously established and extensively published [19]–[22]. Further details may also be found in Supplement S1 (section SA.2.).

HCT116 cells = test: In vitro metabolomics, HCT116 cells; type: cell-based; conditions: 24 and 96 hours exposure to 30nM RAD001
Method: Metabolomics was performed in vitro on HCT116
(KRAS mt; PIK3CA mt) and HT29 (BRAF mt;
PIK3CA mt) cells after 0 (control), 24 and 96 hours exposure to 30nM RAD001. In both cell lines after 24 and 96 hours glucose uptake was reduced showing a decrease in proliferation. […]

[3] = Human, cited from earlier work
[4] = everolimus, mice; cited from earlier work
[5] = everolimus, humans; cited from earlier work
[6] = 2.5 mg/kg daily oral for 7 days, Mouse, plasma, steady-state
[7] = 10 mg/kg daily oral for 7 days, Mouse, plasma, steady-state
[8] = mouse, po, HT29 tumor, 2.5 mg/kg, mice
[9] = mouse, po, HT29 tumor, 10 mg/kg, mice
[10] = mouse, po, plasma, 2.5 mg/kg, mice, non-compartmental analysis
[11] = mouse, po, plasma, 10 mg/kg, mice, non-compartmental analysis
[12] = 10 mg daily oral, steady-state, ref 25

## CO[C@H]1C[C@@H]2CC[C@@H](C)[C@@](O)(O2)C(=O)C(=O)N2CCCC[C@H]2C(=O)O[C@H]([C@H](C)C[C@@H]2CC[C@@H](OCCO)[C@H](OC)C2)CC(=O)[C@H](C)/C=C(\C)[C@@H](O)[C@@H](OC)C(=O)[C@H](C)C[C@H](C)/C=C/C=C/C=C/1C [Everolimus, 40-O-(2-hydroxyethyl)-rapamycin]
HT29 cells; HT29, RAD (20 nM), SN38 (4 nM) or the combination of the two, Figure 2
  %Growth Inhibition: 74%
HT29 cells; Homo sapiens, HT-29, HT29 cells
  IC50: 1.2 nM
HCT8 cells
  %Growth Inhibition: 59%
[1]; [6]
  Cmin: 12±6 ^b ng/mL
  Cmax: 350 ± 230 ng/mL
[1]; [7]
  Cmin: 59±5 ^b ng/mL
  Cmax: 1680 ± 277 ng/mL
[1]; 10 mg/kg in mice, 99% plasma protein binding used
  AUCss,free (steady-state free plasma exposure): 116 ng·h/mL
[1]; [8]
  Cmax: 52 nM
  Tmax: 0.5 h
[1]; mouse, po, HT29 tumor, 2.5 mg/kg, mice, read-out: AUC0→24
  AUC(0-t): 0.742 µM·h
[1]; [9]
  Cmax: 250 nM
  Tmax: 4 h
[1]; mouse, po, HT29 tumor, 10 mg/kg, mice, read-out: AUC0→24
  AUC(0-t): 3.93 µM·h
[1]; [10]
  Cmax: 365 nM
  Tmax: 0.5 h
  CL/F: 20 mL/min/kg
  Vd/F: 10.8 L/kg
[1]; mouse, po, plasma, 2.5 mg/kg, mice, non-compartmental analysis, read-out: AUC0→24
  AUC(0-t): 2 µM·h
[1]; [11]
  Cmax: 1760 nM
  Tmax: 0.5 h
  CL/F: 13.8 mL/min/kg
  Vd/F: 6 L/kg
[1]; mouse, po, plasma, 10 mg/kg, mice, non-compartmental analysis, read-out: AUC0→24
  AUC(0-t): 12.1 µM·h
[1]; 2.5 mg/kg daily oral for 7 days, Mouse, plasma, read-out: AUC0→t
  AUC(0-t): 1920 ng·h/mL
[1]; 2.5 mg/kg daily oral for 7 days, Mouse, plasma
  half-life: 6 h
[1]; 10 mg/kg daily oral for 7 days, Mouse, plasma, read-out: AUC0→t
  AUC(0-t): 11600 ng·h/mL
[1]; 10 mg/kg daily oral for 7 days, Mouse, plasma
  half-life: 5 h
[2]
  AUCss,free (steady-state free plasma exposure): 60 to 178 ng·h/mL
HCT116 tumors
  effects on glucose metabolism: decrease in lactate and glycolysis
HCT116 cells
  glucose uptake: reduced
[3]; 5 mg daily oral, ref 25
  AUC0→t: 238 ± 77 ng·h/mL
  Cmin: ^†5.4 ng/mL
[3]; 5 mg daily oral, ref 26
  AUC0→t: 543 ± 189 ng·h/mL
[3]; 5 mg daily oral, steady-state, estimated from graph in reference
  Cmin: ∼12–14^bd ng/mL
[3]; 5 mg daily oral, steady-state
  Cmax: 32±9 ^b ng/mL
[3]; 10 mg daily oral, ref 25
  AUC0→t: 514 ± 231 ng·h/mL
[3]; 10 mg daily oral, ref 26
  AUC0→t: 711 ± 113 ng·h/mL
[3]; 10 mg daily oral, steady-state, estimated from graph in reference
  Cmin: ∼20^bd ng/mL
[3]; [12]
  Cmax: 61±17 ^b ng/mL
  Cmin: 13.3 ^b ng/mL
[3]; 10 mg daily oral, steady-state, ref 26
  Cmax: 66±1.4 ^b ng/mL
[4]
  plasma protein binding: 99%
[5]
  plasma protein binding: 75%
